Data published in US8513423B2 (Janssen Pharmaceutica, NV, priority 2010, dated 2013).
Changes are numbered by the printed parent chain. Where two headings read alike, the source gives them in different places.

What was measured:
[1] = target: T1, purified wild type MGL (wt-MGLL 6H-11-313) (Homo sapiens, UniProt Q99685); test: MGL enzyme activity assay (4MU-B cleavage), wild type MGL; assay type: biochemical; details: 10 μM 4MU-B, 5 nM enzyme, 37° C., read-out: MGL wild type inh IC50
T1 construct: purified wild type MGL (wt-MGLL 6H-11-313)
T1 sequence (Q99685 1-303): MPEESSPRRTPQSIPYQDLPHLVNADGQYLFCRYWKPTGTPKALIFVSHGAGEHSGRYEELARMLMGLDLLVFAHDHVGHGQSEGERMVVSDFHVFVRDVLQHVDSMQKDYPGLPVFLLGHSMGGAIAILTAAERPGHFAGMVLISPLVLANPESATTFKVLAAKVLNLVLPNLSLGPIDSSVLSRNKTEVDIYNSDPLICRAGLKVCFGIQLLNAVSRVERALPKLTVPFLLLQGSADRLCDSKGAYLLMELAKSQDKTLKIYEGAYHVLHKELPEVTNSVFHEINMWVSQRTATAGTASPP
Method: All rate-based assays were performed in black 384-well polypropylene PCR microplates (Abgene) in a total volume of 30 μL. Substrate 4-methylumbelliferyl butyrate (4MU-B; Sigma) and either purified mutant MGL (mut-MGLL 11-313 L179S L186S) or purified wild type MGL (wt-MGLL 6H-11-313) were diluted separately into 20 mM PIPES buffer (pH=7.0), containing 150 mM NaCl and 0.001% Tween 20. Compounds of Formula (I) were pre-dispensed (50 nL) into the assay plate using a Cartesian Hummingbird prior to adding 4MU-B (25 μL of 1.2× solution to a final concentration of 10 μM) followed by enzyme (5 μL of a 6× solution to a final concentration of 5 nM) to initiate the reaction. Final compound concentrations ranged from 17 to 0.0003 μM. The fluorescence change due to 4MU-B cleavage was monitored with excitation and emission wavelengths of 335 and 440 nm, respectively, and a bandwidth of 10 nm (Safire^2, Tecan) at 37° C. for 5 min.
The IC50 values for compounds of Formula (I) were determined using Excel from a fit of the equation to the concentration-response plot of the fractional activity as a function of inhibitor concentration.

mutant MGL = target: T2, mutant MGL (Homo sapiens, UniProt Q99685, L169S/L176S); test: MGL ThermoFluor assay - mutant; assay type: binding
T2 construct: purified mutant MGL (mut-MGLL 11-313 L179S L186S)
T2 sequence (Q99685 1-303 L169S/L176S): T1 sequence (Q99685 1-303) with L169S, L176S
Method: The ThermoFluor (TF) assay is a 384-well plate-based binding assay that measures thermal stability of proteins^1,2. The experiments were carried out using instruments available from Johnson & Johnson Pharmaceutical Research & Development, LLC. TF dye used in all experiments was 1,8-ANS (Invitrogen: A-47). Final TF assay conditions used for MGL studies were 0.07 mg/ml of mutant MGL, 100 μM ANS, 200 mM NaCl, 0.001% Tween-20 in 50 mM PIPES (pH=7.0).
Screening compound plates contained 100% DMSO compound solutions at a single concentration. For follow-up concentration-response studies, compounds were arranged in a pre-dispensed plate (Greiner Bio-one: 781280), wherein compounds were serially diluted in 100% DMSO across 11 columns within a series. Columns 12 and 24 were used as DMSO reference and contained no compound. For both single and multiple compound concentration-repsonse experiments, the compound aliquots (46 nL) were robotically predispensed directly into 384-well black assay plates (Abgene: TF-0384/k) using the Hummingbird liquid handler. Following compound dispension, protein and dye solutions were added to achieve the final assay volume of 3 μL. The assay solutions were overlayed with 1 μl of silicone oil (Fluka, type DC 200: 85411) to prevent evaporation.
Bar-coded assay plates were robotically loaded onto a thermostatically controlled PCR-type thermal block and then heated from 40 to 90° C. degrees at a ramp-rate of 1° C./min for all experiments. Fluorescence was measured by continuous illumination with UV light (Hamamatsu LC6), supplied via fiber optics and filtered through a band-pass filter (380-400 nm; >6 OD cutoff). Fluorescence emission of the entire 384-well plate was detected by measuring light intensity using a CCD camera (Sensys, Roper Scientific) filtered to detect 500±25 nm, resulting in simultaneous and independent readings of all 384 wells. A single image with 20-sec exposure time was collected at each temperature, and the sum of the pixel intensity in a given area of the assay plate was recorded vs temperature and fit to standard equations to yield the Tm^1. • 1. Pantoliano, M. W., Petrella, E. C., Kwasnoski, J. D., Lobanov, V. S., Myslik, J., Graf, E., Carver, T., Asel, E., Springer, B. A., Lane, P., and Salemme, F. R. (2001) J Biomol Screen 6, 429-40. • 2. Matulis, D., Kranz, J. K., Salemme, F. R., and Todd, M. J. (2005) Biochemistry 44, 5258-66.
The Kd values for compounds of Formula (I) were determined from a fit of the equation to the concentration-response plot of the fractional activity as a function of Tm. For some experiments, quantitative NMR spectroscopy (qNMR) was used to measure concentration of the initial 100% DMSO compound solutions and, using the same fitting method, qKd values were determined

MGL = target: T3, MGL (Rattus norvegicus, UniProt Q8R431); test: 2-AG accumulation assay in rat brain homogenate; assay type: biochemical; details: compound @1 μM, read-out: Rat Brain 2AG % VehCntrl (%) @1 μM
T3 construct: one g rat brain was homogenized; from tissue; host or cells: rat brain homogenate
T3 sequence (Q8R431 1-303): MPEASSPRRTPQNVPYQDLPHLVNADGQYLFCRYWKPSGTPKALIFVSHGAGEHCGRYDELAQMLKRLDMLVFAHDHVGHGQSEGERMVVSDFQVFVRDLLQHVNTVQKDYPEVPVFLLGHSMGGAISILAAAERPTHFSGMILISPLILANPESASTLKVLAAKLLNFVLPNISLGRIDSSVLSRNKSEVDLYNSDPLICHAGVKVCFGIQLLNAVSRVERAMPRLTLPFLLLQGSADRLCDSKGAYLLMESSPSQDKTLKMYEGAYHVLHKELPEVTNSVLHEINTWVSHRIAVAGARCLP
Method: After a 15-min incubation time at 37° C., CaCl2 (final concentration=10 mM) was added and then incubated for 15 min at 37° C. in a total volume of 5 mL. The reactions were stopped with 6 mL organic solvent extraction solution of 2:1 chloroform/methanol. Accumulated 2-AG in the organic phase was measured by a HPLC/MS method, according to the following equation: percent vehicle=(2-AG accumulation in the presence of compound/2-AG accumulation in vehicle)×100.

[2] = 0.07 mg/ml mutant MGL, pH=7.0, read-out: MGL mutant ThermoFluor Kd
[3] = compound concentration measured by qNMR, read-out: MGL mutant ThermoFluor qKd (using qNMR conc.)

Compound	IC50 [1]	Kd (mutant MGL; [2])	2-AG accumulation, percent of vehicle control at 1 µM (MGL)	Kd (mutant MGL; [3])
O=C(c1ccc(Cc2cccc(C(F)(F)F)c2)cc1)N1CC(C2CCN(C(=O)c3nccs3)CC2)C1 [Cpd 19, 1-(1,3-Thiazol-2-ylcarbonyl)-4-[1-({4-[3-(trifluoromethyl)benzyl]phenyl}carbonyl)azetidin-3-yl]piperidine]	< 5 nM	9 nM	559%	
O=C(c1ccc2c(ccn2-c2ccc(C(F)(F)F)cc2)c1)N1CC(C2CCN(C(=O)c3nccs3)CC2)C1 [Cpd 31, 5-({3-[1-(1,3-Thiazol-2-ylcarbonyl)piperidin-4-yl]azetidin-1-yl}carbonyl)-1-[4-(trifluoromethyl)phenyl]-1H-indole]	< 5 nM	2.6 nM	779%	
O=C(c1cscn1)N1CCC(C2CN(C(=O)c3sc4cc(C(F)(F)F)ccc4c3Cl)C2)CC1 [Cpd 35, 4-(1-{[3-Chloro-6-(trifluoromethyl)-1-benzothiophen-2-yl]carbonyl}azetidin-3-yl)-1-(1,3-thiazol-4-ylcarbonyl)piperidine]	< 5 nM	2.5 nM	724%	5.7 nM
O=C(c1ccc2c(ccn2-c2ccc(C(F)(F)F)cc2)c1)N1CCC(C2CN(C(=O)c3ccc[nH]3)C2)CC1 [Cpd 77, 5-({4-[1-(1H-Pyrrol-2-ylcarbonyl)azetidin-3-yl]piperidin-1-yl}carbonyl)-1-[4-(trifluoromethyl)phenyl]-1H-indole]	< 5 nM		714%	5 nM
O=C(c1ccc(Cc2ccc(C(F)(F)F)cc2)cc1)N1CCC(C2CN(C(=O)c3ccc[nH]3)C2)CC1 [Cpd 65, 4-[1-(1H-Pyrrol-2-ylcarbonyl)azetidin-3-yl]-1-({4-[4-(trifluoromethyl)benzyl]phenyl}carbonyl)piperidine]	< 5 nM		241%	40.4 nM
O=C(c1ccc2nc(-c3ccccc3)oc2c1)N1CCC(C2CN(C(=O)c3ccc[nH]3)C2)CC1 [Cpd 68, 2-Phenyl-6-({4-[1-(1H-pyrrol-2-ylcarbonyl)azetidin-3-yl]piperidin-1-yl}carbonyl)-1,3-benzoxazole]	62.1 nM		453%	14.5 nM
O=C(c1ccc2nc(-c3ccccc3)oc2c1)N1CCC(C2CN(C(=O)c3cscn3)C2)CC1 [Cpd 67, 2-Phenyl-6-({4-[1-(1,3-thiazol-4-ylcarbonyl)azetidin-3-yl]piperidin-1-yl}carbonyl)-1,3-benzoxazole]	66.5 nM		590%	6.6 nM
O=C(c1ccc2c(ccn2-c2ccc(F)c(F)c2)c1)N1CC(C2CCN(C(=O)c3cscn3)CC2)C1 [Cpd 38]	5 nM	15.5 nM	425%	
O=C(c1ccc(Cc2cccc(C(F)(F)F)c2)cc1)N1CCC(C2CN(C(=O)c3nccs3)C2)CC1 [Cpd 57, 4-[1-(1,3-Thiazol-2-ylcarbonyl)azetidin-3-yl]-1-({4-[3-(trifluoromethyl)benzyl]phenyl}carbonyl)piperidine]	17 nM		869%	5.9 nM
O=C(c1ccc(-c2cccc(C(F)(F)F)c2)cc1)N1CC(C2CCN(C(=O)c3cscn3)CC2)C1 [Cpd 10, 1-(1,3-Thiazol-4-ylcarbonyl)-4-(1-{[3′-(trifluoromethyl)biphenyl-4-yl]carbonyl}azetidin-3-yl)piperidine]	15.5 nM	11 nM	194%	
O=C(c1ccc(-c2cccc(C(F)(F)F)c2)cc1)N1CC(C2CCN(C(=O)c3ccc[nH]3)CC2)C1 [Cpd 22, 1-(1H-Pyrrol-2-ylcarbonyl)-4-(1-{[3′-(trifluoromethyl)biphenyl-4-yl]carbonyl}azetidin-3-yl)piperidine]	8 nM	6.6 nM	470%	
O=C(c1ccc2nc(-c3ccccc3)oc2c1)N1CC(C2CCN(C(=O)c3nccs3)CC2)C1 [Cpd 28, 2-Phenyl-6-({3-[1-(1,3-thiazol-2-ylcarbonyl)piperidin-4-yl]azetidin-1-yl}carbonyl)-1,3-benzoxazole]	16.4 nM	11.1 nM	777%	
O=C(c1nccs1)N1CCC(C2CN(C(=O)c3sc4cc(F)ccc4c3Cl)C2)CC1 [Cpd 8, 4-{1-[(3-Chloro-6-fluoro-1-benzothiophen-2-yl)carbonyl]azetidin-3-yl}-1-(1,3-thiazol-2-ylcarbonyl)piperidine]	7 nM	4 nM	523%	
O=C(c1cscn1)N1CCC(C2CN(C(=O)c3sc4cc(F)ccc4c3Cl)C2)CC1 [Cpd 7, 4-{1-[(3-Chloro-6-fluoro-1-benzothiophen-2-yl)carbonyl]azetidin-3-yl}-1-(1,3-thiazol-4-ylcarbonyl)piperidine]	56.5 nM	25 nM	185%	
O=C(c1ccc(Cc2ccc(C(F)(F)F)cc2)cc1)N1CC(C2CCN(C(=O)c3nccs3)CC2)C1 [Cpd 27, 1-(1,3-Thiazol-2-ylcarbonyl)-4-[1-({4-[4-(trifluoromethyl)benzyl]phenyl}carbonyl)azetidin-3-yl]piperidine]	9 nM	13.3 nM	634%	
